From ChEMBL document CHEMBL1201862, “PubChem BioAssay data set” (2004)
Where “and” joins values, the source holds several entries; their conditions need not be identical. Equal entries are not always repeated. Blank lines part the entries; values can stand above or below the molecule they belong to. Calls of active or inactive are those of the source.

Key:
Type in all cases: functional
[1] = molecular target: T1, Apoptotic protease-activating factor 1 (Homo sapiens, UniProt O14727); experiment: SAR analysis of small molecule Activators of Apaf-1 in a Fluorescent assay.; settings: read-out: EC50_Mean
T1 sequence (O14727 whole entry): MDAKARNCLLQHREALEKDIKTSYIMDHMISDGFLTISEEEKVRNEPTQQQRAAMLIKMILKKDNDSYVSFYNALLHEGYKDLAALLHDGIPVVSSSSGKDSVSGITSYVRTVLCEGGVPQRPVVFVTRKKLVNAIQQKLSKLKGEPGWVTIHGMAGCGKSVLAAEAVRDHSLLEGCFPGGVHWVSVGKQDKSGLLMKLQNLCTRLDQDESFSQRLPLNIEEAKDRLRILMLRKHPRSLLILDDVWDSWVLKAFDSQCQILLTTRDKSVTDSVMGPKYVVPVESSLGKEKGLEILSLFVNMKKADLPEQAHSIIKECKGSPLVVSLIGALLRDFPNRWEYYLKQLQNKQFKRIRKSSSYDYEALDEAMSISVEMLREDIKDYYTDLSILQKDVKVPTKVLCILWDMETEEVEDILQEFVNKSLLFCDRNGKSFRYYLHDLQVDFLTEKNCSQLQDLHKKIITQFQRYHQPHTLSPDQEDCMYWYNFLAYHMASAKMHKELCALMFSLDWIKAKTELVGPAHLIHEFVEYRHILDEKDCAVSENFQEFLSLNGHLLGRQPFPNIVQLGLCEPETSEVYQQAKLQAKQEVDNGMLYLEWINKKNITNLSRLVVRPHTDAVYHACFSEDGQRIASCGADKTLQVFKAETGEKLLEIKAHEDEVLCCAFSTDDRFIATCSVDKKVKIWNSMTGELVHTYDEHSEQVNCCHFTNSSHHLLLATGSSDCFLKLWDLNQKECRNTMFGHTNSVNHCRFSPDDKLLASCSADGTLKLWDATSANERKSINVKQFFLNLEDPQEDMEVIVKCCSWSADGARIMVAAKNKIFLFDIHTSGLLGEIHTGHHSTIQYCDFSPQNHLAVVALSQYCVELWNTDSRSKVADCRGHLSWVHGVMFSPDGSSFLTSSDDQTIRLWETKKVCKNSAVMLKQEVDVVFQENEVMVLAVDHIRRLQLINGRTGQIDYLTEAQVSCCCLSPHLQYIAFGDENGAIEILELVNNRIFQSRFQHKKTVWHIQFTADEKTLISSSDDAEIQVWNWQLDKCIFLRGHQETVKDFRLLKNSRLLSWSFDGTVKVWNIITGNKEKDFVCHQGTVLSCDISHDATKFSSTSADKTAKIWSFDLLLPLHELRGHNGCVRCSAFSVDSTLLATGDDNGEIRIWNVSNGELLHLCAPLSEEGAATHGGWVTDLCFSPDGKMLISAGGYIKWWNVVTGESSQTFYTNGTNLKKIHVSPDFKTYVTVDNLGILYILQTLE

[2] = molecular target: T1, Apoptotic protease-activating factor 1; experiment: SAR analysis of small molecule Activators of Apaf-1 in a Fluorescent assay - set 2.; settings: read-out: EC50_Mean
[3] = SAR analysis of small molecule activators of Apaf-1 using a LZ-Caspase-9/Caspase-3 Fluorescent Selectivity assay - Set 2.; settings: read-out: EC50_Mean
[4] = molecular target: Mitogen-activated protein kinase kinase kinase kinase 5 (Homo sapiens, UniProt Q9Y4K4);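 note: measured as one member of a kinome-spanning kinase panel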
[5] = molecular target: Mitogen-activated protein kinase 13 (Homo sapiens, UniProt O15264)
Chain of Mitogen-activated protein kinase 13 (O15264 whole entry): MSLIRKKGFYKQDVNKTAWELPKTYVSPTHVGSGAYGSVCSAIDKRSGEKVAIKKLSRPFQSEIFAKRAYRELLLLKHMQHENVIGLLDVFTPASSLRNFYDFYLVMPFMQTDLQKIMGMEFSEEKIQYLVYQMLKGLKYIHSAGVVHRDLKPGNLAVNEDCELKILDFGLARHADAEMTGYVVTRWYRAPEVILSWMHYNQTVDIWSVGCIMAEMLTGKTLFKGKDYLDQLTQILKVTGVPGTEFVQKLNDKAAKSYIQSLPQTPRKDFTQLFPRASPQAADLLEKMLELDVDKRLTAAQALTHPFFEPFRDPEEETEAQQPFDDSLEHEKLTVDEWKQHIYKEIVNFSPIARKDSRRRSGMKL

[6] = molecular target: Cell division cycle 7-related protein kinase (Homo sapiens, UniProt O00311);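 note: value obtained from a kinome-wide kinase panel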
Chain of Cell division cycle 7-related protein kinase (O00311 whole entry): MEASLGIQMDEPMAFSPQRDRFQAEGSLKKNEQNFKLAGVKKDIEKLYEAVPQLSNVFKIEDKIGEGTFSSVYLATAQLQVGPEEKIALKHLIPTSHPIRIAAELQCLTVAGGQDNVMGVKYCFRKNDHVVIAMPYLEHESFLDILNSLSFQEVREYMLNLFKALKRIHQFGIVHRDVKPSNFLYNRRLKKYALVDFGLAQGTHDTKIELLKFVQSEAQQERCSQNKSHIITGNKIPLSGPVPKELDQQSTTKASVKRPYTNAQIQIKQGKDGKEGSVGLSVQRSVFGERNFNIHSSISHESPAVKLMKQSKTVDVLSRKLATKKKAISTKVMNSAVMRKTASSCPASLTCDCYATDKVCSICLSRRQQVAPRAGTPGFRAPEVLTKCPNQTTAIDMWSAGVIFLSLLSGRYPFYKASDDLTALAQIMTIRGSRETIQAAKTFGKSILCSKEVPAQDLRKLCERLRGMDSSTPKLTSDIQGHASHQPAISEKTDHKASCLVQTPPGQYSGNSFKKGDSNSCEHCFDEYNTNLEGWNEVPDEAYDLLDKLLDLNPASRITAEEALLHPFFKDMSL

[7] = molecular target: Mast/stem cell growth factor receptor Kit (Homo sapiens, UniProt P10721);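 note: KIT entry within a kinase panel assay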
[8] = molecular target: Tyrosine-protein kinase Blk (Homo sapiens, UniProt P51451);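 note: obtained as one member of a kinome-wide kinase assay panel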
Chain of Tyrosine-protein kinase Blk (P51451 whole entry): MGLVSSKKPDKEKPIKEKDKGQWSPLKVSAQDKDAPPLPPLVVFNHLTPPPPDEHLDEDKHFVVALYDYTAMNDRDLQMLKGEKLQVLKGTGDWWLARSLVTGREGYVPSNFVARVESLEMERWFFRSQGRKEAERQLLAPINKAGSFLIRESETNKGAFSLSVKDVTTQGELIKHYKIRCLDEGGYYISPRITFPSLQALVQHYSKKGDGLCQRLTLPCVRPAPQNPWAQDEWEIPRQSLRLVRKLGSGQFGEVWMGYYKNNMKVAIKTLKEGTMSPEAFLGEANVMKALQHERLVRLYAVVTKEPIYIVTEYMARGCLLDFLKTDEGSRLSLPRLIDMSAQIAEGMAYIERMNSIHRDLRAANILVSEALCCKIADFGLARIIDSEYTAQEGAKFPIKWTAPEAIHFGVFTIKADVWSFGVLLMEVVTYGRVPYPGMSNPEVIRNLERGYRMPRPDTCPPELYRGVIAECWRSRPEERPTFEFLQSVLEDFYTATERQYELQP

[9] = molecular target: Mitogen-activated protein kinase kinase kinase kinase 2 (Homo sapiens, UniProt Q12851);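 note: measured as one member of a kinome-wide kinase panel, with MAP4K2 as the panel entry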
Chain of Mitogen-activated protein kinase kinase kinase kinase 2 (Q12851 whole entry): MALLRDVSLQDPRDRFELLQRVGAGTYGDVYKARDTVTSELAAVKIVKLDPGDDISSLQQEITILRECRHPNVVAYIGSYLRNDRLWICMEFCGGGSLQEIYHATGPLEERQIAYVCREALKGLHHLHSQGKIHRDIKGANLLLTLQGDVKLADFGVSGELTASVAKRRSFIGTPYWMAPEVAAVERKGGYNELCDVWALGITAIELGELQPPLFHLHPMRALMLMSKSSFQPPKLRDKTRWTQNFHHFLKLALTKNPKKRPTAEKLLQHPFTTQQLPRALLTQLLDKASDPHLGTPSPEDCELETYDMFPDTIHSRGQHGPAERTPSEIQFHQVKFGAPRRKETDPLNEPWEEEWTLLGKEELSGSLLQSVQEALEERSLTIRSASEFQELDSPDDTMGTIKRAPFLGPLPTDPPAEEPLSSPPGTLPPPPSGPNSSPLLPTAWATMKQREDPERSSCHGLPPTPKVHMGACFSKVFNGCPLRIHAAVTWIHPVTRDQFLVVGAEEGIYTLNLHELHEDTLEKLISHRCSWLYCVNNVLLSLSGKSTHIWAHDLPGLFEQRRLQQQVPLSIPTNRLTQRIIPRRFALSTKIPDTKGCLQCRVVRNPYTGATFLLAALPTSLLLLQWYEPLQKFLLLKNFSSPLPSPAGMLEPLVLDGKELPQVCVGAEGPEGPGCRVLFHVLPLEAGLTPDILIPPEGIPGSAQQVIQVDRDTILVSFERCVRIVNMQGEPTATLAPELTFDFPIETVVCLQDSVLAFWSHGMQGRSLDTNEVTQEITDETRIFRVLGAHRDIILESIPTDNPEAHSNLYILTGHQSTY

[10] = molecular target: Cyclin-dependent kinase 9 (Homo sapiens, UniProt P50750);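 note: value from the CDK9 entry of a kinome-spanning kinase panel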
[11] = molecular target: Interleukin-1 receptor-associated kinase 4 (Homo sapiens, UniProt Q9NWZ3)
[12] = molecular target: Glycogen synthase kinase-3 beta (Homo sapiens, UniProt P49841);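 note: value comes from a broad kinome profiling panel, with GSK3B as the panel member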
Chain of Glycogen synthase kinase-3 beta (P49841 whole entry): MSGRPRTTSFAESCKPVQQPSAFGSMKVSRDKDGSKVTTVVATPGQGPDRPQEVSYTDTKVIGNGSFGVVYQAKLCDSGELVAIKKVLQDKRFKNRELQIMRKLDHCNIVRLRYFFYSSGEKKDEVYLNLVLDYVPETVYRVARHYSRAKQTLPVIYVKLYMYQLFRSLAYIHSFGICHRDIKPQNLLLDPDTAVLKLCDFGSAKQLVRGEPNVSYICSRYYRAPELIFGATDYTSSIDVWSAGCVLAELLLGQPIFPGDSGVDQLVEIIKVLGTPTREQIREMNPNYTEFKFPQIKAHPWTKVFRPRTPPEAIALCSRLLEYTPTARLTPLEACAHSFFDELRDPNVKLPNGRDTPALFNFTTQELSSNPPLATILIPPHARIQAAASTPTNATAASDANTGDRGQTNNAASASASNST

[13] = molecular target: cAMP-dependent protein kinase catalytic subunit alpha (Homo sapiens, UniProt P17612)
[14] = molecular target: Homeodomain-interacting protein kinase 2 (Homo sapiens, UniProt Q9H2X6);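 note: measured within a kinome-wide kinase profiling panel, HIPK2 being one panel member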
[15] = molecular target: Cyclin-dependent kinase 7 (Homo sapiens, UniProt P50613);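 note: value comes from a kinome-wide kinase profiling panel in which CDK7 is one member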
[16] = molecular target: MAP kinase-interacting serine/threonine-protein kinase 2 (Homo sapiens, UniProt Q9HBH9)
[17] = molecular target: Dual specificity protein kinase CLK4 (Homo sapiens, UniProt Q9HAZ1)
[18] = molecular target: Serine/threonine-protein kinase pim-1 (Homo sapiens, UniProt P11309)
Chain of Serine/threonine-protein kinase pim-1 (P11309 whole entry): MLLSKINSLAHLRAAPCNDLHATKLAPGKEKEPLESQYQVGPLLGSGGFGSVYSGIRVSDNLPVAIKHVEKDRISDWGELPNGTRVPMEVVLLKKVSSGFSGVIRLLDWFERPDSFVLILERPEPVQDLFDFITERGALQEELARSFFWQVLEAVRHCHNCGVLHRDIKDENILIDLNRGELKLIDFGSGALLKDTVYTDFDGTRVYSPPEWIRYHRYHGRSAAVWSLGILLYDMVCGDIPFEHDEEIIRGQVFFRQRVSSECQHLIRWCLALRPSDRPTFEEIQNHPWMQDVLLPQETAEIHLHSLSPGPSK

[19] = molecular target: Mitogen-activated protein kinase kinase kinase kinase 4 (Homo sapiens, UniProt O95819)
Chain of Mitogen-activated protein kinase kinase kinase kinase 4 (O95819 whole entry): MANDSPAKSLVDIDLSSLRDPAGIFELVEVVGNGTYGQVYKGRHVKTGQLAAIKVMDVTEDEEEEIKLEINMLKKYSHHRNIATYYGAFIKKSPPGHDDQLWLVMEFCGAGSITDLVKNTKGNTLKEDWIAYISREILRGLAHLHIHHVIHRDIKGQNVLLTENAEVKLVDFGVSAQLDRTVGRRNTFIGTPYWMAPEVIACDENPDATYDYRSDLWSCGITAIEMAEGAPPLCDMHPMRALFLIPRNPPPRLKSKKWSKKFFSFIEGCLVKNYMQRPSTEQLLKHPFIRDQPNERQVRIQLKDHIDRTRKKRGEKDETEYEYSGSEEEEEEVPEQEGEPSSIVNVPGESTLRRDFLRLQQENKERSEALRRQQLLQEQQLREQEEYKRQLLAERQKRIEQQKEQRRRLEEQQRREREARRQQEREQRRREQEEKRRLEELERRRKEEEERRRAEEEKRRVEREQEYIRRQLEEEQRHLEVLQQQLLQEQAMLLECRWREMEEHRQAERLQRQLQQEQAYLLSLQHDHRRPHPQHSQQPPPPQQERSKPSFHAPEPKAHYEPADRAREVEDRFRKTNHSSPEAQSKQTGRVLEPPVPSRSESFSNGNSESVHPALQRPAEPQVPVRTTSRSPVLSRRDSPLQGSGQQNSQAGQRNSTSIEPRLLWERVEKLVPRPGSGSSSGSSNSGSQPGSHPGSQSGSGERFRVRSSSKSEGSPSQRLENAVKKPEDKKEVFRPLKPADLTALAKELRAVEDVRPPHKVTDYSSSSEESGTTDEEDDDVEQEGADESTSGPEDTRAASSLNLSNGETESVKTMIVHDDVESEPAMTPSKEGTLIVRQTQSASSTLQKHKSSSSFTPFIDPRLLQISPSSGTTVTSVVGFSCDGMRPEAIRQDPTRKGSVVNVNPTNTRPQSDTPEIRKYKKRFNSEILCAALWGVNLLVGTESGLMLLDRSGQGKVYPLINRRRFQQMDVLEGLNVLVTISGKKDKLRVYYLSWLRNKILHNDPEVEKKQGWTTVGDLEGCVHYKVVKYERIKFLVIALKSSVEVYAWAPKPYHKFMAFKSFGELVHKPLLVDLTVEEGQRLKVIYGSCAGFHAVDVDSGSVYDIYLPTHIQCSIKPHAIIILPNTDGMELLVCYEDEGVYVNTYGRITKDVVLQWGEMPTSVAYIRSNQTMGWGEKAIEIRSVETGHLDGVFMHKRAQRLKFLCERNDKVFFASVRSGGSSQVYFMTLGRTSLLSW

[20] = molecular target: G protein-coupled receptor kinase 5 (Homo sapiens, UniProt P34947); experiment: Navigating the Kinome. Panel member name: GPRK5
Chain of G protein-coupled receptor kinase 5 (P34947 whole entry, canonical isoform): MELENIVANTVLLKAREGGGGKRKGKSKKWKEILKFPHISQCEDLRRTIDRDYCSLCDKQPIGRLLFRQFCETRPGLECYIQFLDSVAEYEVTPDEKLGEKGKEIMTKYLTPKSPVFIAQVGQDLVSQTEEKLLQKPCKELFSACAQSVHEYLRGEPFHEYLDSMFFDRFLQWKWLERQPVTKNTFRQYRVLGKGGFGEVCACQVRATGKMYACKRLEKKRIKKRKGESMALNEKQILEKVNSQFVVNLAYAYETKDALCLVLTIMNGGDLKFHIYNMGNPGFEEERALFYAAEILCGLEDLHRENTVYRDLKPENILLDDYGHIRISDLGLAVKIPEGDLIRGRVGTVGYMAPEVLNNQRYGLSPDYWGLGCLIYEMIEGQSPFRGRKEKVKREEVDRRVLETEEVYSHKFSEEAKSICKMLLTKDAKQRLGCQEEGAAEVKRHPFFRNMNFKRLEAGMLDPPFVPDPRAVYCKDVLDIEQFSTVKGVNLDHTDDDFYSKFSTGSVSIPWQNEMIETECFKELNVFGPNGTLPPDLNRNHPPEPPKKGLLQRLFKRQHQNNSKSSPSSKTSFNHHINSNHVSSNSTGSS

[21] = molecular target: Casein kinase I isoform alpha (Homo sapiens, UniProt P48729)
[22] = molecular target: DNA dC->dU-editing enzyme APOBEC-3A (Homo sapiens, UniProt P31941); experiment: SAR analysis of small molecule inhibitors of APOBEC3A DNA Deaminase via a fluorescence-based single-stranded DNA deaminase assay.; settings: read-out: IC50_Mean
Chain of DNA dC->dU-editing enzyme APOBEC-3A (P31941 whole entry): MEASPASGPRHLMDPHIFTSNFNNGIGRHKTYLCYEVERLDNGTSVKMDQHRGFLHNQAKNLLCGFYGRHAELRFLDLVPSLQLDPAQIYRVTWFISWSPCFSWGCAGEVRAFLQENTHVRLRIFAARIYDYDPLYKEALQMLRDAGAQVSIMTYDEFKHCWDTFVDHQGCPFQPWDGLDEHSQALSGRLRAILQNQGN

[23] = molecular target: DNA dC->dU-editing enzyme APOBEC-3G (Homo sapiens, UniProt Q9HC16); experiment: inhibition of APOBEC3G ssDNA deamination – biochemical, fluorescence, single-stranded DNA substrate, SAR follow-up (AID 602136); settings: read-out: IC50_Mean

EC50 [1]: 5.13 µM (active)
SMILES: Cc1nn(CC(C)C(=O)O)c(C)c1Br (centres undefined)
EC50 [2]: 4.75 µM (active) and 3.41 µM (active) and 12.7 µM (active)
EC50 [3]: > 100 µM (inactive) and > 99 µM (inactive)

Ki [4]: 0.316 µM (active)
Ki [5]: > 7.94 µM (inactive)
Ki [6]: > 1.26 µM (inactive)
Ki [7]: > 1.26 µM (inactive)
Ki [8]: 0.316 µM (active)
Ki [9]: 0.794 µM (active)
SMILES: CC1(O)CC(c2nc(-c3ccc4ccc(-c5ccccc5)nc4c3)c3c(N)nccn23)C1 (centres undefined)

Ki [10]: 0.1 µM (active)
Ki [11]: 0.398 µM (active)
Ki [12]: 1.26 µM (active)
Ki [13]: 0.501 µM (active)
Ki [6]: 0.0126 µM (active)
Ki [14]: 2 µM (active)
Ki [15]: 0.2 µM (active)
Ki [16]: 0.126 µM (active)
Ki [17]: 0.0126 µM (active)
Ki [18]: 5.01 µM (active)
Ki [19]: 0.1 µM (active)
SMILES: CN(C)c1cc(-c2ccncc2)cc2[nH]nc(N)c12

Ki [20]: 2.51 µM (active)
Ki [21]: 3.16 µM (active)
SMILES: NS(=O)(=O)OCC1CC(n2ccc3c(NC4CCc5ccccc54)ncnc32)CC1O (centres undefined)

SMILES: CCCn1c(=O)c2ccc(C(=O)NC(C)C)cc2n2c(=O)n(Cc3c(F)cccc3Cl)nc12
IC50 [22]: > 99 µM (inactive)
IC50 [23]: > 99 µM (inactive)
